# From US7067633B2, “Targeting cellular entry, cell survival, and pathogenicity by dynein light chain 1/PIN in human cells” (Board of Regents, The University of Texas System, priority 2003, dated 2006)
# How the values were obtained:
# Type in all cases: cell-based, human
# [1] = test system: Ishikawa and MCF-7/TAMR1 cells; assay: Growth of Tam-resistant cells (cell number)
# Method: FIGS. 22A–22F—DLC1 deregulation potentiates ligand-induced growth and anchorage-independence. FIG. 22A: DLC1 upregulation potentiates growth stimulation by E2 in a Tam-insensitive manner. MCF-7/DLC1 cells were treated with or without Dox and then with E2 (10^−9M) or Tam (10^−8M) for 5 days, and the cell number was determined. FIG. 22B: DLC1 upregulation promotes anchorage independence. […] FIG. 22C: DLC1 expression supports optimum growth of Tam-resistant cells. Ishikawa and MCF-7/TAMR1 cells were transfected with control or DLC siRNA for 48 h and then treated with or without Tam (10^−8M) for 96 h, and the cell number was determined. FIG. 22D: DLC1-mediated potentiation of ER transactivation depends on the Pak1 status in Ishikawa and MCF-7/TAMR1 cell lines. Ishikawa and MCF-7/TAMR1 cells were transfected with control or Pak1 siRNA for 48 h and then with ERE-luc for 24 h and treated with E2 (10^−9M) for 24 h and ERE-luc activity was measured. FIG. 22E: Pak1 expression level influences the growth of Tam resistant cells. Ishikawa and MCF-7/TAMR1 cells were treated with control or Pak1 siRNA for 48 h and treated with or without Tam (10^−8M) for 4 days, and cell number was determined. FIG. 22F: Co-downregulation of Pak1 and DLC1 in Tam-resistant cells restores Tam-sensitivity. […]
# [2] = test system: Pak1; assay: Pak1 kinase activity in cell lysates; conditions: Ishikawa cells
# Excerpt: FIGS. 20A–20L—Pak1 activation confers tamoxifen-resistance. FIG. 20A: Pak1 activation promoted ER-transactivation function.
# [3] = test system: DLC1; assay: DLC1 protein and mRNA expression; conditions: MCF-7/TAMR1 and Ishikawa cells, 24 h
# Method: MCF-7/Tam-sen, MCF-7/TAMR1 and Ishikawa cells were treated with E2 (10^−9M) or Tam (10^−9M) for 24 h, and cell lysates were assayed for DLC1 and Pak1 protein expression. […] FIG. 21C: Effect of different periods of E2 treatment and cycloheximide (CHX) and Actinomycin D (ACTD) treatment on the ability of E2 to upregulate DLC1 mRNA in MCF-7 cells.
# [4] = test system: ZR 75 cells; assay: Boyden chamber migration assay, NIH3T3 conditioned medium; conditions: stable ZR75 clones
# Method: FIGS. 4A–4E—Effect of DLC1/PIN expression on cell motility. FIG. 4A: expression of DLC1/PIN in a number of normal and breast cancer cells analyzed by western blot analysis. FIG. 4B: Expression of T7-DLC1/PIN in stable clones analyzed by western blot analysis. FIG. 4C: Effect DLC1/PIN expression on the motility. Migratory potential of DLC1/PIN wild type or DLC1/PIN^del88-89 mutant expressing clones was measured by Boyden chamber assay using NIH3T3 conditioned medium as chemoattractant. Migrated cells were recorded by microscopy. Representative data of three replicate experiments is shown. FIG. 4D: ZR75/RFP-DLC1 cells which stably expressing wild type red florescent-tagged DLC1/PIN protein (RFPDLC1/PIN) was incubated with FITC-dextran beads. After twenty minutes, cells were fixed with methanol and stained for endogenous Pak1 (blue), RFPDLC1/PIN (red) and FITC-dextran (green). An inset containing the cytoplasmic region was blown up to visualize the colocalization of Pak1 and DLC1/PIN on dextran beads. Merged images are presented in the upper right panel, and colocalization of Pak1 with DLC1/PIN can be visualized as white vesicles due to colocalization of pixels from Pak1 (blue), DLC1/PIN (red) and FITC dextran (green). FIG. 4E: ZR75/RFP-DLC1/PIN were transfected with a dominant negative mutant of Pak1 K299RLL (a myc-tagged kinase dead and GTPase binding defective construct of Pak1). […]
Compound,growth of cells with downregulated DLC ([1]; Tam 96 h),growth of cells with downregulated Pak1 ([1]; Tam 4 days),Pak1 kinase activity [2],expression of the DLC1 protein [3],migratory potential [4]
CC/C(=C(\c1ccccc1)c1ccc(OCCN(C)C)cc1)c1ccccc1 [tamoxifen],further reduced the growth,no further significant effect,upregulated,robustly upregulated,–
DLC1/PIN^del 88-89: DLC1/PIN mutant in which Ser88 and amino acid 89 were deleted,–,–,–,–,abolished DLC1/PIN mediated increase in the migratory potential
